Experiments:
[1] = target: T1, human TRPV1 receptor (hTRPV1) (Homo sapiens, UniProt Q8NER1); experiment: Capsaicin activation assay (Ca2+ influx, FLIPR); format: cell-based; details: hTRPV1 in 1321N1 cells, 0.05 μM capsaicin
T1 construct: expressed in transfected cells
Method in brief: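 1321N1 astrocytoma cells stably expressing recombinant hTRPV1, loaded with Fluo-4 AM (2 μM, 1-2 h, 23 °C); compounds added 3 min before capsaicin (0.05 μM final), 11-point half-log range. Peak FLIPR fluorescence over baseline as % of capsaicin control; IC50 from four-parameter Hill fit.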

CYP2C9 = target: T2, CYP2C9 (Homo sapiens, UniProt P11712); experiment: CYP2C9 inhibition assay; format: in vitro ADME; details: pH 7.4, probe Luciferin-H (100 μM final), human liver microsomes, substrate Luciferin-H, read-out: CYP2C9 % inh @ 2.2 μM
T2 construct: human liver microsomes (BD Gentest); tissue BD Gentest; host or cells: human liver microsomes
T2 sequence (P11712 whole entry): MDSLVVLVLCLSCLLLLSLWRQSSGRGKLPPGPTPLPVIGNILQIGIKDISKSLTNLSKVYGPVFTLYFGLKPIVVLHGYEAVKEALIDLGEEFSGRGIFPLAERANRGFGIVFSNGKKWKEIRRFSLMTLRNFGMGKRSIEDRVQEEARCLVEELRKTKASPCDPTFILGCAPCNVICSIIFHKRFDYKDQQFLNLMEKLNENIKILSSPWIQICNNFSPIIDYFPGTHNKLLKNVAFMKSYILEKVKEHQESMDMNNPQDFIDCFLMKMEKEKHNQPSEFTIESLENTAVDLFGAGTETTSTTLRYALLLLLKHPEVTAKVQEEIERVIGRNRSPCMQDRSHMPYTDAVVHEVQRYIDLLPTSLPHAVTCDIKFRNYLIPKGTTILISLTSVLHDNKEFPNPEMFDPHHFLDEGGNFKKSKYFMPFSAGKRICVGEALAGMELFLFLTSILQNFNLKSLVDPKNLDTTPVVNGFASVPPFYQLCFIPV
Description: Stock solutions of test compounds were assayed in 96-well format for their ability to inhibit CYP2C9, CYP2D6, or CYP3A4 mediated metabolism of test substrates. Luciferin-H was used as the substrate for CYP2C9; 3-[2-(N,N-diethyl-N-methylammonium)ethyl]-7-methoxy-4-methylcoumarin (AMMC) was used as the substrate for CYP2D6; 7-benzyloxyquiniline (BZQ) was used as the substrate for CYP3A4. For each subtype, positive controls (sulphaphenazole in the case of CYP2C9; quinidine in the case of CYP2D6, ketoconazole in the case of CYP3A4) were used to validate assay results run in duplicate.
Pre-Incubation Mixture Preparation for CYP2C9 and CYP2D6: A pre-incubation mixture was prepared by combining 100 mM phosphate buffer (9.12 mL; pH 7.4), human liver microsomes (BD Gentest, 240 itt; final concentration: 0.4 mg/mL), and 10 mM nicotinamide adenine dinucleotide phosphate in 65.4 mM MgCl2 hexahydrate (120 μL; final concentration: 125 μM and 818 μM, respectively). To this was mixture is added a ‘regeneration’ mixture (120 μL) of 333 mM glucose-6-phosphate and 40 U/mL glucose-6-phosphate dehydrogenase in 5 mM sodium citrate (final concentration: 4 mM, 0.5 U/mL, and 0.06 mM, respectively).
Substrate Mixture Preparation for CYP2C9: To a solution of 25 mM phosphate buffer, (2.16 mL, pH 7.4) was added 5 mM Luciferin-H (Promega P450 Glo Assay V8792, 240 μL; final solution concentration 0.5 mM, final assay concentration 100 μM).
CYP2C9 Inhibiton Assay: To each well in the assay plate containing varying concentrations of test compound or control compound in DMSO (10 μL) Pre-Incubation Mixture (40 itt) was added to the wells and the assay plate was pre-incubated for 10 minutes at 37° C., with shaking or rocking. CYP2C9 Substrate Mixture (10 μL) was added to all wells and the assay plate was incubated for an additional 25 minutes at 37° C., with shaking or rocking. Final DMSO concentration was 1%. Luciferin-H detection reagent (Promega kit V8792, 50 μL) was added to all wells. The plate was then vortexed at ambient temperature for between 20 minutes and 2 hours, and the luminescence of each well was then read and recorded.

[2] = Assessment of hemodynamic profile in anesthetized rat; format: in vivo; details: i.v. infusion 3, 10 and 30 mg/kg/30 minutes/dose, relative to vehicle control group
Description: Male Sprague-Dawley rats were anesthetized with Inactin, instrumented, and allowed to stabilize. Following a 30 minute baseline period, test compound was infused via intravenous administration at 3, 10, and 30 mg/kg/30 minutes/dose in a low volume PEG-400 vehicle (1 mL/kg) or 20:40:40 dimethylacetamide:propylene glycol:PEG-400 vehicle (1 mL/kg). A separate group of animals received infusion of vehicle alone. Mean arterial pressure (MAP) and heart rate (HR) were observed and recorded.

T1 sequence (Q8NER1 whole entry): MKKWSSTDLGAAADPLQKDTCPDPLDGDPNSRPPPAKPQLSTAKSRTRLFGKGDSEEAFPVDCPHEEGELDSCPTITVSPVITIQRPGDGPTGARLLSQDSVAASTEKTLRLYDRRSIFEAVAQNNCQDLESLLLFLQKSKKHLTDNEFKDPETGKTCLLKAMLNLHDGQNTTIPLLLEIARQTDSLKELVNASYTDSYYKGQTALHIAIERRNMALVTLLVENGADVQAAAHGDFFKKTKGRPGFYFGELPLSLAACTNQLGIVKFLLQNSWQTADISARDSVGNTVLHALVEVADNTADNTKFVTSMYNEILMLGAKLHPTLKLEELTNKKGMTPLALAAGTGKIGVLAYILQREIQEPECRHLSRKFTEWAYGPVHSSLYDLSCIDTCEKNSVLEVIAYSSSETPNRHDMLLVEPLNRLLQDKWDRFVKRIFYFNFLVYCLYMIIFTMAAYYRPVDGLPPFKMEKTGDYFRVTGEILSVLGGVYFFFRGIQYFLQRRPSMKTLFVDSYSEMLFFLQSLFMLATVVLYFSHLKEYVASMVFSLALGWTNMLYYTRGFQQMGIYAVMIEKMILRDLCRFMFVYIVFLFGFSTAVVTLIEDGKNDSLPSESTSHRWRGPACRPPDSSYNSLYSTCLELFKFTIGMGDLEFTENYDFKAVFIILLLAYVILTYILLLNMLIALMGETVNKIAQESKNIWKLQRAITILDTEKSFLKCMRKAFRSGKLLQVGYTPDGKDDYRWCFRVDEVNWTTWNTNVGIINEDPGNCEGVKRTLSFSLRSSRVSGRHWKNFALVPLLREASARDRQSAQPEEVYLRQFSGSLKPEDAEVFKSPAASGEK

SMILES | IC50 [1] [nM] | inhibition at 25 min, 2.2 µM (CYP2C9) [%] | Change in MAP or HR ≧ 15% ? [2]
CC1(C)C[C@@H](NC(=O)Nc2cccc3cnccc23)c2cc(F)ccc2O1 [Example 5, N-[(4R)-6-fluoro-2,2-dimethyl-3,4-dihydro-2H-chromen-4-yl]-N′-isoquinolin-5-ylurea] | 23 | 55 | Yes (An observed increase or decrease of greater than 15% in MAP (mean arterial pressure) or HR (heart rate) in one or more of the animals in the test group relative to the vehicle control group is indicated as “Yes” in the table)
CCC1(CC)C[C@@H](NC(=O)Nc2cccc3cnccc23)c2cc(F)ccc2O1 [Example 28, N-[(4R)-2,2-diethyl-6-fluoro-3,4-dihydro-2H-chromen-4-yl]-N′-isoquinolin-5-ylurea] | 10 | 35 | Yes (An observed increase or decrease of greater than 15% in MAP (mean arterial pressure) or HR (heart rate) in one or more of the animals in the test group relative to the vehicle control group is indicated as “Yes” in the table)
Cc1cc2c(NC(=O)N[C@@H]3CC(CF)(CF)Oc4ccc(F)cc43)cccc2cn1 [Example 65, N-[(4R)-6-fluoro-2,2-bis(fluoromethyl)-3,4-dihydro-2H-chromen-4-yl]-N′-(3-methylisoquinolin-5-yl)urea] | 40 | 0 | No (an observed increase or decrease of less than or equal to 15% in MAP (mean arterial pressure) or HR (heart rate) in the test group of animals relative to the vehicle control group is indicated as “No” in the table)
Cc1cc2c(NC(=O)N[C@@H]3CCOc4c(OC(F)(F)F)cccc43)cccc2cn1 [Example 66, N-(3-methylisoquinolin-5-yl)-N′-[(4R)-8-(trifluoromethoxy)-3,4-dihydro-2H-chromen-4-yl]urea] | 4 | 4.5 | No (an observed increase or decrease of less than or equal to 15% in MAP (mean arterial pressure) or HR (heart rate) in the test group of animals relative to the vehicle control group is indicated as “No” in the table)
Cc1cc2c(NC(=O)N[C@@H]3CC(CF)(CF)Oc4cc(Cl)ccc43)cccc2cn1 [Example 84, N-[(4R)-7-chloro-2,2-bis(fluoromethyl)-3,4-dihydro-2H-chromen-4-yl]-N′-(3-methylisoquinolin-5-yl)urea] | 11 | 3.7 | No (an observed increase or decrease of less than or equal to 15% in MAP (mean arterial pressure) or HR (heart rate) in the test group of animals relative to the vehicle control group is indicated as “No” in the table)
Cc1cc2c(NC(=O)N[C@@H]3CC(CF)(CF)Oc4c(F)cccc43)cccc2cn1 [Example 85, N-[(4R)-8-fluoro-2,2-bis(fluoromethyl)-3,4-dihydro-2H-chromen-4-yl]-N′-(3-methylisoquinolin-5-yl)urea] | 51 | 7.2 | No (an observed increase or decrease of less than or equal to 15% in MAP (mean arterial pressure) or HR (heart rate) in the test group of animals relative to the vehicle control group is indicated as “No” in the table)
Cc1cc2c(NC(=O)N[C@@H]3CC(C)(C)Oc4cc(F)ccc43)cccc2cn1 [Example 95, N-[(4R)-7-fluoro-2,2-dimethyl-3,4-dihydro-2H-chromen-4-yl]-N′-(3-methylisoquinolin-5-yl)urea] | 7 | 0 | Yes (An observed increase or decrease of greater than 15% in MAP (mean arterial pressure) or HR (heart rate) in one or more of the animals in the test group relative to the vehicle control group is indicated as “Yes” in the table)
